The text below walks through data of patent publication US20220362167A1, “WATER-DISPERSIBLE CANNABIDIOL PRODUCT AND PREPARATION METHOD THEREFOR” (GUILIN LAYN NATURAL INGREDIENTS CORP., priority 2019, published 2022).

A short description of this data set: Water solubility test of cannabidiol product. The data set is classed as physicochemical. Particulars: 50 mg in 500 mL distilled water, room temperature, stirred. How it is done: Water Solubility Test of Cannabidiol Product
Three parts of 500 mL of distilled water are taken. 50 mg of the cannabidiol product prepared in Example 1, Comparative Example 1 and Comparative Example 2 are added respectively at room temperature, and stirred, and recorded the time required for dissolution, with the cannabidiol as control.

Turning to `C=C(C)[C@@H]1CCC(C)=C[C@H]1c1c(O)cc(CCCCC)cc1O` [cannabidiol], the “appearance of the solution” value is “precipitation and delamination”.
